Laboratory results reported in ChEMBL document CHEMBL1201862, “PubChem BioAssay data set” (2004).
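Protocol summary: plate cells (96-well), add compound at 5 concentrations, incubate 48 h, interpolate endpoints linearly. GI50 marks 50% less growth.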 Calls of active or inactive are those of the source. Rule as the data show it: active = GI50 up to about 1.1 µM and inactive = higher.

Key:
Assay in all cases: NCI-60 cell line screen, 48 h
[1] = test system: PC-3
[2] = test system: HOP-62
[3] = test system: OVCAR-3
[4] = test system: SF-268
[5] = test system: RXF 393
[6] = test system: SF-539
[7] = test system: HT-29
[8] = test system: SNB-19
[9] = test system: KM12
[10] = test system: MDA-N
[11] = test system: MOLT-4
[12] = test system: Hs-578T
[13] = test system: OVCAR-4
[14] = test system: MDA-MB-435
[15] = test system: NCI/ADR-RES
[16] = test system: SK-MEL-28
[17] = test system: SR
[18] = test system: BT-549
[19] = test system: NCI-H23
[20] = test system: NCI-H522

Row | Structure (SMILES) | GI50 [1] | GI50 [2] | GI50 [3] | GI50 [4] | GI50 [5] | GI50 [6] | GI50 [7] | GI50 [8] | GI50 [9] | GI50 [10] | GI50 [11] | GI50 [12] | GI50 [13] | GI50 [14] | GI50 [15] | GI50 [16] | GI50 [17] | GI50 [18] | GI50 [19] | GI50 [20]
1 | O=[N+]([O-])c1ccc(Sc2c3ccccc3nc3ccccc23)nc1 | 14.8 µM (inactive) | 23.3 µM (inactive) | 5.74 µM (inactive) | 8.71 µM (inactive) | 3.28 µM (inactive) | 16.7 µM (inactive) | 3.06 µM (inactive) | 18.4 µM (inactive) | 23.8 µM (inactive) | 5.12 µM (inactive) | 2.75 µM (inactive) | 19.4 µM (inactive) | 4.69 µM (inactive) | 8.55 µM (inactive) | 19 µM (inactive) | 4.75 µM (inactive) | 2.47 µM (inactive) | 14.1 µM (inactive) | 6.84 µM (inactive) | 2.73 µM (inactive)
2 | Cn1c2cc(Cl)ccc2c2ccc3c(c21)C(=O)C=CC3=O | 25.8 µM (inactive) | > 100 µM (inactive) | 11.7 µM (inactive) | 38.6 µM (inactive) | 21.1 µM (inactive) | > 55 µM (inactive) | 31.4 µM (inactive) | > 100 µM (inactive) | > 100 µM (inactive) | 26.1 µM (inactive) | 2.75 µM (inactive) | 46.9 µM (inactive) | 20.7 µM (inactive) | 25.4 µM (inactive) | > 52.4 µM (inactive) | 25.3 µM (inactive) | 6.07 µM (inactive) | 25.6 µM (inactive) | 20 µM (inactive) | 8.13 µM (inactive)
3 | O=C1/C(=N\NC(=S)NC2CCCCC2)c2cc([N+](=O)[O-])ccc2N1CN1CCOCC1 | 4.7 µM (inactive) | 10.3 µM (inactive) | 5.86 µM (inactive) | 4.35 µM (inactive) | 12.4 µM (inactive) | 11.4 µM (inactive) | 4.48 µM (inactive) | 7.87 µM (inactive) | 4.81 µM (inactive) | 6.08 µM (inactive) | 1.71 µM (inactive) | 15 µM (inactive) | 4.62 µM (inactive) | 6.79 µM (inactive) | 3.26 µM (inactive) | 10.9 µM (inactive) | 1.14 µM (inactive) | 4.86 µM (inactive) | 5.93 µM (inactive) | 10 µM (inactive)
4 | O=C1c2c(nc3ccccc3c2-c2ccccc2)CN1Nc1ccccn1 | > 89.7 µM (inactive) | 72.6 µM (inactive) | 75 µM (inactive) | 75.9 µM (inactive) | 53 µM (inactive) | > 75.2 µM (inactive) | > 100 µM (inactive) | > 86.5 µM (inactive) | 76 µM (inactive) | > 100 µM (inactive) | 71.4 µM (inactive) | 21.2 µM (inactive) | > 80.7 µM (inactive) | > 100 µM (inactive) | 43 µM (inactive) | > 100 µM (inactive) | 58.1 µM (inactive) | > 79.1 µM (inactive) | 86.5 µM (inactive) | > 78.3 µM (inactive)
5 | Cc1csc2c(=O)n(C3OC(CO)C(O)C3O)c(=O)[nH]c12 (stereo not given) | > 100 µM (inactive) | > 100 µM (inactive) | > 100 µM (inactive) | > 100 µM (inactive) | > 100 µM (inactive) | > 100 µM (inactive) | > 100 µM (inactive) | > 100 µM (inactive) | > 100 µM (inactive) | > 100 µM (inactive) | > 100 µM (inactive) | > 100 µM (inactive) | > 100 µM (inactive) | > 100 µM (inactive) | > 100 µM (inactive) | > 100 µM (inactive) | > 100 µM (inactive) | > 100 µM (inactive) | > 100 µM (inactive) | > 100 µM (inactive)
6 | N#CC1=C(N)OC2=C(CCCc3ccc([N+](=O)[O-])cc32)C1c1ccccc1 (stereo not given) | 8.3 µM (inactive) | 4.17 µM (inactive) | 2.21 µM (inactive) | 5.41 µM (inactive) | 4.18 µM (inactive) | 3.17 µM (inactive) | 3.44 µM (inactive) | 5.86 µM (inactive) | 3.15 µM (inactive) | 2.09 µM (inactive) | 3.69 µM (inactive) | 15.9 µM (inactive) | 6.41 µM (inactive) | 1.42 µM (inactive) | 2.38 µM (inactive) | 5.82 µM (inactive) | 2.36 µM (inactive) | 4.5 µM (inactive) | 4.97 µM (inactive) | 2.14 µM (inactive)
7 | Cc1ccc(C(CCO)CCO)nc1 | > 100 µM (inactive) | > 100 µM (inactive) | > 100 µM (inactive) | > 100 µM (inactive) | > 100 µM (inactive) | > 100 µM (inactive) | > 100 µM (inactive) | > 100 µM (inactive) | > 100 µM (inactive) | > 100 µM (inactive) | > 100 µM (inactive) | > 100 µM (inactive) | > 100 µM (inactive) | > 100 µM (inactive) | > 100 µM (inactive) | > 100 µM (inactive) | > 100 µM (inactive) | > 100 µM (inactive) | > 100 µM (inactive) | > 100 µM (inactive)
8 | O=C1/C(=C/c2ccccc2)CCC/C1=C\c1ccc(O)c(CN2CCCCC2)c1 | 4.56 µM (inactive) | 13.5 µM (inactive) | 6.98 µM (inactive) | 5.07 µM (inactive) | 13.8 µM (inactive) | 2.95 µM (inactive) | 1.77 µM (inactive) | 9.35 µM (inactive) | 0.933 µM (active) | 2.56 µM (inactive) | 3.1 µM (inactive) | 3.93 µM (inactive) | 5.5 µM (inactive) | 2.55 µM (inactive) | 2.69 µM (inactive) | 6.92 µM (inactive) | 1.05 µM (active) | 2.84 µM (inactive) | 3.96 µM (inactive) | 2.24 µM (inactive)
9 | O=C1c2cc([N+](=O)[O-])ccc2-c2cccc(F)c21 | 73.8 µM (inactive) | > 100 µM (inactive) | > 100 µM (inactive) | 44.3 µM (inactive) | 42.9 µM (inactive) | 40.2 µM (inactive) | > 100 µM (inactive) | > 100 µM (inactive) | 79.4 µM (inactive) | 72.3 µM (inactive) | 42.3 µM (inactive) | 52.1 µM (inactive) | > 100 µM (inactive) | 76.7 µM (inactive) | > 100 µM (inactive) | > 100 µM (inactive) | 30.3 µM (inactive) | > 100 µM (inactive) | > 100 µM (inactive) | 44.5 µM (inactive)
10 | C/C=C\C(C)=C/C(C)C(=O)CC(O)CC1CC(=O)NC(=O)C1 (stereo not given) | 9.31 µM (inactive) | 12.1 µM (inactive) | 22.3 µM (inactive) | 10.5 µM (inactive) | 17.1 µM (inactive) | 14 µM (inactive) | 24 µM (inactive) | 17.8 µM (inactive) | 14.6 µM (inactive) | 19.5 µM (inactive) | 4.79 µM (inactive) | 4.09 µM (inactive) | 19.1 µM (inactive) | 28.4 µM (inactive) | 4.71 µM (inactive) | 34.4 µM (inactive) | 10.9 µM (inactive) | 34.2 µM (inactive) | 23.7 µM (inactive) | 2.01 µM (inactive)
11 | CO/C(N)=C(C#N)/N=C/c1ccccc1 | > 100 µM (inactive) | > 100 µM (inactive) | > 100 µM (inactive) | > 100 µM (inactive) | > 100 µM (inactive) | > 100 µM (inactive) | 51.3 µM (inactive) | 66.2 µM (inactive) | > 100 µM (inactive) | > 100 µM (inactive) | > 100 µM (inactive) | > 100 µM (inactive) | 71 µM (inactive) | > 100 µM (inactive) | > 100 µM (inactive) | > 100 µM (inactive) | > 100 µM (inactive) | > 100 µM (inactive) | > 100 µM (inactive) | > 100 µM (inactive)
12 | Nc1nc(Cl)cc(NCC2(CO)CC(Cc3ccccc3)C2)n1 (stereo not given) | 30.6 µM (inactive) | > 66.5 µM (inactive) | 51.9 µM (inactive) | 21.6 µM (inactive) | 20.4 µM (inactive) | 59.3 µM (inactive) | 29 µM (inactive) | 25.5 µM (inactive) | 35.1 µM (inactive) | 25.1 µM (inactive) | 16.5 µM (inactive) | 38.7 µM (inactive) | 24.2 µM (inactive) | 19.4 µM (inactive) | 9.73 µM (inactive) | 60.4 µM (inactive) | 9.27 µM (inactive) | 20.4 µM (inactive) | 34.4 µM (inactive) | 36.4 µM (inactive)
13 | c1coc(C2=Nc3cccc4cccc(c34)N2)c1 | 24.2 µM (inactive) | > 100 µM (inactive) | 24.2 µM (inactive) | 68.2 µM (inactive) | 25.9 µM (inactive) | 15 µM (inactive) | 23.2 µM (inactive) | > 100 µM (inactive) | 19.6 µM (inactive) | 41.1 µM (inactive) | > 100 µM (inactive) | 55.6 µM (inactive) | 29.9 µM (inactive) | 50.8 µM (inactive) | 18.7 µM (inactive) | 72.9 µM (inactive) | > 100 µM (inactive) | 44.5 µM (inactive) | 44.8 µM (inactive) | 11.2 µM (inactive)
14 | COC(=O)[C@@H]1C[C@H]([Se]c2ccccc2)CN1C(=O)OCc1ccccc1 | 30.3 µM (inactive) | 98.6 µM (inactive) | 24 µM (inactive) | 47.5 µM (inactive) | 20.2 µM (inactive) | 39.8 µM (inactive) | 26 µM (inactive) | 62.7 µM (inactive) | 30.8 µM (inactive) | 19.2 µM (inactive) | 22 µM (inactive) | 64.9 µM (inactive) | 24.8 µM (inactive) | 24.3 µM (inactive) | 39.2 µM (inactive) | 24 µM (inactive) | 26.1 µM (inactive) | 22.9 µM (inactive) | 20.4 µM (inactive) | 46.2 µM (inactive)
